Reference: patent US7998987B2, “Inhibitors of c-Met and uses thereof” (Vertex Pharmaceuticals Incorporated, priority 2005, dated 2011)
pKi: −log10 of the molar value.

target: c-Met (Homo sapiens, UniProt P08581); assay: Ki determination for the inhibition of c-Met kinase activity (standard coupled enzyme system); format: biochemical; settings: coupled enzyme system, 200 μM ATP, 10 μM polyGluTyr, 80 nM c-Met, 30° C.; read-out: c-Met Ki
Experimental: Ki Determination for the Inhibition of c-Met
Reactions were carried out in a solution containing 100 mM HEPES (pH 7.5), 10 mM MgCl2, 25 mM NaCl, 300 μM NADH, 1 mM DTT, and 1.5% DMSO. Final substrate concentrations in the assay were 200 μM ATP (Sigma Chemicals, St Louis, Mo.) and 10 μM polyGluTyr (Sigma Chemical Company, St. Louis). Reactions were carried out at 30° C. and 80 nM c-Met. Final concentrations of the components of the coupled enzyme system were 2.5 mM phosphoenolpyruvate, 300 μM NADH, 30 μg/ml pyruvate kinase and 10 μg/ml lactate dehydrogenase.
An assay stock buffer solution was prepared containing all of the reagents listed above with the exception of ATP and a test compound of the present invention. […] The reaction was initiated by the addition of 20 μL of ATP (final concentration 200 μM). Rates of reaction were obtained using a Molecular Devices Spectramax plate reader (Sunnyvale, Calif.) over 10 minutes at 30° C. The Ki values were determined from the rate data as a function of inhibitor concentration.

Chain of c-Met (P08581 25-1390): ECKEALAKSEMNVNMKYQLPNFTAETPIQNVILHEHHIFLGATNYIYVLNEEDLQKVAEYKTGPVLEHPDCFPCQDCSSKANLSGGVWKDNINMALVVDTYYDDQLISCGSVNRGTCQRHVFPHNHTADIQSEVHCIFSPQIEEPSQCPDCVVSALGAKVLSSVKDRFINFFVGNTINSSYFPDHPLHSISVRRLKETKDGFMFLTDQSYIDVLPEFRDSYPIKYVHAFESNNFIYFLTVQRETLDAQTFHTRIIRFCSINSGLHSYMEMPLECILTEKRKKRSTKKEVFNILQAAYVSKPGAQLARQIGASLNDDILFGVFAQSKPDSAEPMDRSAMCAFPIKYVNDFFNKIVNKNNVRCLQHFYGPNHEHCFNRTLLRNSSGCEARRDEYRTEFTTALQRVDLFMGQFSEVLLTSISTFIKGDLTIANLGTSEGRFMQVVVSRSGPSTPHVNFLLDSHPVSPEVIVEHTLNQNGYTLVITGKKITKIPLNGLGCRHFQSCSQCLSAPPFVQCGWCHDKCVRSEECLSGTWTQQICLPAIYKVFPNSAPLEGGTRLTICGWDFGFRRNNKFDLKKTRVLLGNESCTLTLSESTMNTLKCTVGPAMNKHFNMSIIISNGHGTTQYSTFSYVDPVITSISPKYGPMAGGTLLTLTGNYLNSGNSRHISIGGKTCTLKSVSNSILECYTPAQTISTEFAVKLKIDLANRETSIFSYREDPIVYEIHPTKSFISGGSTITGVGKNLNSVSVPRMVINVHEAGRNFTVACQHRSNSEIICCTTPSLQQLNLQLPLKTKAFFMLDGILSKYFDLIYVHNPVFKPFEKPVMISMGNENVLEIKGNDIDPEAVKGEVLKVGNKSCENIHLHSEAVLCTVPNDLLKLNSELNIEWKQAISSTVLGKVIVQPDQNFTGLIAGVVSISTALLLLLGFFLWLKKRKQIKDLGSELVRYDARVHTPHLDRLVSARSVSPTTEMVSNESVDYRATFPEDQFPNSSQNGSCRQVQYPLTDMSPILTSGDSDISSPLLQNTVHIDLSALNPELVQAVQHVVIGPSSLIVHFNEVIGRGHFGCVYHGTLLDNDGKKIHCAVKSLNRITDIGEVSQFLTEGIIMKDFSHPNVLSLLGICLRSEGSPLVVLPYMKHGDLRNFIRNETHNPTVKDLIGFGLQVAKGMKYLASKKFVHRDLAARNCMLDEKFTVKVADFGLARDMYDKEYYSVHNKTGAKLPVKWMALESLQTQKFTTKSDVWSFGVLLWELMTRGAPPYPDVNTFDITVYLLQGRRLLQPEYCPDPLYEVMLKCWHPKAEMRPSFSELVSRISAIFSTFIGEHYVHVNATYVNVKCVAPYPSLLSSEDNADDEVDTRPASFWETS

Structure (SMILES) | pKi
c1ccc([C@@H]2C[C@H]2c2nn3c(Cc4ccc5c(c4)OCO5)nnc3s2)cc1 [Compound 47] | < 5.70
c1coc(-c2nn3c(Cc4ccc5c(c4)OCO5)nnc3s2)c1 [Compound 48] | < 5.70
c1csc(Cc2nn3c(Cc4ccc5c(c4)OCO5)nnc3s2)c1 [Compound 49] | < 5.70
Oc1ccc(Cc2nnc3sc(Nc4cc(Cl)cc(Cl)c4)nn23)cc1 [Compound 50] | > 7.00
COc1cc(Cc2nnc3sc(Nc4cccnc4)nn23)ccc1O [Compound 51] | < 5.70
Oc1ccc(Cc2nnc3sc(Nc4ccc(Cl)cc4)nn23)cc1 [Compound 52] | > 7.00
CC(c1ccc(O)cc1)c1nnc2sc(Nc3ccc(Cl)cc3)nn12 (stereo not drawn) [Compound 53] | > 7.00
Oc1ccc(Cc2nnc3sc(Nc4ccc(Cl)cc4)nn23)cc1F [Compound 54] | > 7.00
Oc1ccc(Cc2nnc3sc(Nc4ccc(Cl)cc4)nn23)cc1Cl [Compound 55] | 5.70 to 7.00
Clc1ccc(Nc2nn3c(Cc4ccc5c(c4)OCO5)nnc3s2)cc1 [Compound 56] | 5.70 to 7.00
O=C(Nc1nn2c(Cc3ccc(O)cc3)nnc2s1)c1ccccc1 [Compound 57] | < 5.70
Oc1ccc(Cc2nnc3sc(Nc4cccc(F)c4)nn23)cc1 [Compound 59] | > 7.00
Cc1ccc(Nc2nn3c(Cc4ccc(O)cc4)nnc3s2)cc1 [Compound 60] | > 7.00
COC(=O)c1cccc(Nc2nn3c(Cc4ccc(O)cc4)nnc3s2)c1 [Compound 61] | > 7.00
CC(c1ccc(O)cc1)c1nnc2sc(Nc3cccc(Cl)c3)nn12 (stereo not drawn) [Compound 63] | > 7.00
COc1ccc(Nc2nn3c(Cc4ccc(O)c(F)c4)nnc3s2)cc1 [Compound 64] | 5.70 to 7.00
COc1ccc(Nc2nn3c(Cc4ccc5c(c4)OCO5)nnc3s2)cc1 [Compound 65] | 5.70 to 7.00
CC(c1ccc(O)cc1)c1nnc2sc(Nc3ccccc3Cl)nn12 (stereo not drawn) [Compound 66] | > 7.00
Oc1ccc(Cc2nnc3sc(Nc4ccccc4Cl)nn23)cc1Cl [Compound 67] | 5.70 to 7.00
Clc1ccccc1Nc1nn2c(Cc3ccc4c(c3)OCO4)nnc2s1 [Compound 68] | 5.70 to 7.00
COC(=O)c1ccccc1Nc1nn2c(Cc3ccc(O)cc3)nnc2s1 [Compound 69] | < 5.70
Oc1ccc(Cc2nnc3sc(Nc4ccc5nsnc5c4)nn23)cc1 [Compound 70] | < 5.70

Structure (SMILES) | pKi
Oc1ccc(Cc2nnc3sc(Nc4ccc(-n5cccn5)cc4)nn23)cc1 [Compound 71] | > 7.00
Cc1ccc(Nc2nn3c(Cc4ccc(O)cc4)nnc3s2)cc1C [Compound 72] | 5.70 to 7.00
Cc1ccc(Nc2nn3c(Cc4ccc(O)cc4)nnc3s2)cc1Cl [Compound 73] | 5.70 to 7.00
CN(C)c1ccc(Nc2nn3c(Cc4ccc(O)cc4)nnc3s2)cc1 [Compound 74] | 5.70 to 7.00
Cc1ccc(F)cc1Nc1nn2c(Cc3ccc(O)cc3)nnc2s1 [Compound 75] | > 7.00
Cc1cc(F)ccc1Nc1nn2c(Cc3ccc(O)cc3)nnc2s1 [Compound 76] | 5.70 to 7.00
Oc1ccc(Cc2nnc3sc(Nc4cc(Cl)ccc4Cl)nn23)cc1 [Compound 77] | > 7.00
Oc1ccc(Cc2nnc3sc(Nc4ccccc4Cl)nn23)cc1 [Compound 78] | > 7.00
Oc1ccc(Cc2nnc3sc(Nc4ccccc4Cl)nn23)cc1F [Compound 79] | 5.70 to 7.00
COc1ccc(Nc2nn3c(Cc4ccc(O)cc4)nnc3s2)cc1 [Compound 80] | > 7.00
Oc1ccc(Cc2nnc3sc(Nc4cccnc4)nn23)cc1 [Compound 81] | > 7.00
CC(c1ccc(O)cc1)c1nnc2sc(Nc3cccnc3)nn12 (stereo not drawn) [Compound 82] | > 7.00
Oc1ccc(Cc2nnc3sc(Nc4cccnc4)nn23)cc1F [Compound 83] | 5.70 to 7.00
c1cncc(Nc2nn3c(Cc4ccc5c(c4)OCO5)nnc3s2)c1 [Compound 84] | 5.70 to 7.00
CN(C)c1ccc(Nc2nn3c(Cc4ccc5c(c4)OCO5)nnc3s2)cc1 [Compound 85] | 5.70 to 7.00
Oc1ccc(Cc2nnc3sc(NC4CCCCC4)nn23)cc1 [Compound 86] | 5.70 to 7.00
CNC(=O)c1nn2c(C(C)c3ccc(O)cc3)nnc2s1 (stereo not drawn) [Compound 87] | < 5.70
CC(c1ccc(O)cc1)c1nnc2sc(C(N)=O)nn12 (stereo not drawn) [Compound 88] | < 5.70
CC(c1ccc(O)cc1)c1nnc2sc(C(=O)N3CCCC3)nn12 (stereo not drawn) [Compound 89] | < 5.70
CC(c1ccc(O)cc1)c1nnc2sc(C(=O)NC3CC3)nn12 (stereo not drawn) [Compound 90] | < 5.70
Clc1ccc(Cc2nnc3sc(Nc4cccc(Cl)c4)nn23)cc1 [Compound 91] | < 5.70
Oc1cccc(CCc2nnc3sc(Nc4cccc(Cl)c4)nn23)c1 [Compound 92] | < 5.70

Structure (SMILES) | pKi
Oc1ccc(CCc2nnc3sc(Nc4cccc(F)c4)nn23)cc1 [Compound 93] | < 5.70
Oc1ccc(CCc2nnc3sc(Nc4cccc(Cl)c4)nn23)cc1 [Compound 94] | < 5.70
Oc1cccc(CCc2nnc3sc(Nc4cccc(F)c4)nn23)c1 [Compound 95] | < 5.70
Oc1ccc(Cc2nnc3sc(Nc4cccc(F)c4)nn23)cc1Cl [Compound 97] | > 7.00
Oc1ccc(Cc2nnc3sc(Nc4cccc(F)c4F)nn23)cc1F [Compound 99] | 5.70 to 7.00
CC(c1ccc(O)cc1)c1nnc2sc(Nc3cccc(F)c3)nn12 (stereo not drawn) [Compound 100] | > 7.00
CC(c1ccc(O)cc1)c1nnc2sc(Nc3cccc(F)c3F)nn12 (stereo not drawn) [Compound 101] | > 7.00
Oc1ccc(CCc2nnc3sc(Nc4cccc(Cl)c4F)nn23)cc1 [Compound 102] | 5.70 to 7.00
Oc1ccc(Cc2nnc3sc(Nc4cccc(F)c4Cl)nn23)cc1Cl [Compound 103] | 5.70 to 7.00
Oc1ccc(Cc2nnc3sc(Nc4cc(F)cc(F)c4)nn23)cc1Cl [Compound 104] | > 7.00
C[C@@H](c1ccc(O)cc1)c1nnc2sc(Nc3cccc(F)c3)nn12 [Compound 105] | > 7.00
C[C@H](c1ccc(O)cc1)c1nnc2sc(Nc3cccc(F)c3)nn12 [Compound 106] | > 7.00
Fc1cccc(Nc2nn3c(Cc4ccc5c(c4)OCO5)nnc3s2)c1 [Compound 107] | > 7.00
Oc1ccc(Cc2nnc3sc(Nc4cccc(F)c4)nn23)cc1F [Compound 108] | > 7.00
Oc1cccc(CCc2nnc3sc(Nc4cccc(Cl)c4F)nn23)c1 [Compound 109] | 5.70 to 7.00
Oc1cccc(Cc2nnc3sc(Nc4cccc(F)c4Cl)nn23)c1 [Compound 110] | 5.70 to 7.00
Oc1ccc(CCc2nnc3sc(Nc4cc(F)cc(F)c4)nn23)cc1 [Compound 111] | 5.70 to 7.00
O=C(Nc1cccc(Cl)c1)Nc1nn2c(Cc3ccc(O)cc3)nnc2s1 [Compound 112] | < 5.70
O=C(Nc1ccccc1)Nc1nn2c(Cc3ccc(O)cc3)nnc2s1 [Compound 113] | < 5.70
O=C(Nc1ccc(F)cc1)Nc1nn2c(Cc3ccc(O)cc3)nnc2s1 [Compound 114] | < 5.70
COc1ccc(NC(=O)Nc2nn3c(Cc4ccc(O)cc4)nnc3s2)cc1 [Compound 115] | < 5.70
C[C@@H](c1ccc(O)cc1)c1nnc2sc(Nc3cccc(Cl)c3)nn12 [Compound 116] | > 7.00

Structure (SMILES) | pKi
C[C@@H](c1ccc(O)cc1)c1nnc2sc(Nc3ccc(Cl)cc3)nn12 [Compound 117] | > 7.00
C[C@H](c1ccc(O)cc1)c1nnc2sc(Nc3ccc(Cl)cc3)nn12 [Compound 118] | 5.70 to 7.00
Oc1cccc(CCc2nnc3sc(Nc4cc(F)cc(F)c4)nn23)c1 [Compound 120] | < 5.70
Oc1cccc(CCc2nnc3sc(Nc4cccc(F)c4F)nn23)c1 [Compound 121] | < 5.70
Oc1cccc(Cc2nnc3sc(Nc4cccc(F)c4)nn23)c1 [Compound 122] | 5.70 to 7.00
Oc1cccc(Cc2nnc3sc(Nc4cccc(F)c4F)nn23)c1 [Compound 123] | 5.70 to 7.00
Oc1cccc(Cc2nnc3sc(Nc4cc(F)cc(F)c4)nn23)c1 [Compound 124] | 5.70 to 7.00
Fc1c(Cl)cccc1Nc1nn2c(Cc3ccc4c(c3)OCO4)nnc2s1 [Compound 126] | 5.70 to 7.00
Fc1cc(F)cc(Nc2nn3c(Cc4ccc5c(c4)OCO5)nnc3s2)c1 [Compound 127] | > 7.00
Oc1ccc(Cc2nnc3sc(Nc4cccc(F)c4F)nn23)cc1Cl [Compound 128] | > 7.00
Oc1ccc(Cc2nnc3sc(Nc4cccc(Cl)c4F)nn23)cc1F [Compound 130] | 5.70 to 7.00
Oc1ccc(Cc2nnc3sc(Nc4cc(F)cc(F)c4)nn23)cc1F [Compound 131] | > 7.00
CC(c1ccc(O)cc1)c1nnc2sc(Nc3cccc(Cl)c3F)nn12 (stereo not drawn) [Compound 132] | > 7.00
CC(c1ccc(O)cc1)c1nnc2sc(Nc3cc(F)cc(F)c3)nn12 (stereo not drawn) [Compound 133] | > 7.00
Fc1cccc(Nc2nn3c(Cn4ccc5ncccc54)nnc3s2)c1 [Compound 134] | 5.70 to 7.00
Cc1cccc(Nc2nn3c(Cn4ccc5ncccc54)nnc3s2)c1 [Compound 135] | 5.70 to 7.00
FC(F)(F)c1cccc(Nc2nn3c(Cn4ccc5ncccc54)nnc3s2)c1 [Compound 136] | > 7.00
Oc1cccc(Cc2nnc3sc(Nc4cccc(C(F)(F)F)c4)nn23)c1 [Compound 137] | 5.70 to 7.00
CC(c1ccc(O)cc1)c1nnc2sc(Nc3cccc(C(F)(F)F)c3)nn12 (stereo not drawn) [Compound 138] | > 7.00
COc1ccc([C@H](C)c2nnc3sc(Nc4cccc(Cl)c4)nn23)cc1 [Compound 157] | 5.70 to 7.00
COc1ccc([C@H](C)c2nnc3sc(Nc4cccc(F)c4)nn23)cc1 [Compound 158] | 5.70 to 7.00
